Results as given in patent US8703727B2, “Nanotechnology formulation of poorly soluble compounds” (Aphios Corporation, priority 2010, dated 2014).
Values after ≈ are worked out from the molar mass of the structure shown. Like-named read-outs stand apart in the source and are kept apart here.

Experiments:
[1] = Preliminary solubility experiments in methanol; type: physicochemical
Experimental: Samples were weighed into 20-mL scintillation vials and 10 mL of methanol pipetted into each vial. […] An additional 10 mL of methanol was added to each of these vials. Now sample 3 dissolved completely, but particles still remained in sample 5. An additional 20 mL of methanol was added to sample 5, but on sonication, the small quantity of particles still remained.

[2] = HPLC of old standard solutions stored at room temperature; type: physicochemical
[3] = Solubility of S4 and S5 in methanol and ethanol (saturated solution, HPLC); type: physicochemical; conditions: 25° C.; for solubility at 5 min: organic solvent or mixture, thermodynamic from solid
Experimental: HPLC Method • Column: Phenomenex Luna C18(2), 15-cm×4.6 mm. • Buffer Concentrate (BC): 100 mL Et3N×80 mL 85% H3PO4 to 1000 mL with water. • Mobile Phase B=250 mL ACN+10 mL of BC to 1000 mL with water. • Mobile Phase C=100% ACN • Isocratic Mixture: 60% Phase B and 40% Phase C. • Alternatively, use 55% Acetonitrile with 3-mL Buffer Concentrate/1000 mL • Flow=1.5 mL/min Temperature=30° C. Wavelength=330 nm Injection=20 μL
Procedure for Formation of a Saturated Solution • 1. Weigh in duplicate approximately 100 milligrams of each standard into 1.5 mL mini-centrifuge tubes. • 2. Add 1.00 mL of Methanol to a S4 tube and 1.00 mL of Ethanol to the other S4 tube. Add 1.00 mL of Methanol to a S5 tube and 1.00 mL of Ethanol to the other S5 tube. • 3. Shake all four tubes for 5 minutes at room temperature (25° C.). • 4. Centrifuge at 6000 rpm for 10 minutes. The supernatant should be a saturated solution. • 5. Assay the supernatants by HPLC. Use a 20/1000 dilution in methanol. The target absorbance is 0.40 AU. A reasonable absorbance range is 0.10 to 1.20. If the absorbance that is found is outside of this range, dilute appropriately to bring the absorbance close to 0.40.

[4] = Solubility of aminoflavone in DI water and 1% PVA (HPLC); type: physicochemical; conditions: for solubility at 5 min: thermodynamic from solid
Experimental: Procedure: • 1. Weigh 5-10 mg of Aminoflavone into two 20 mL scintillation vials. • 2. Pipette 10 mL of water into Vial A and 10 mL of 1% PVA into Vial B. • 3. Shake the vials gently for about 5 minutes. Then let stand for 30 minutes. • 4. Carefully withdraw 0.9 mL from each vial for HPLC Analysis • 5. Shake the samples again and transfer to 50 mL Centrifuge tubes. • 6. Centrifuge for 20 minutes at 2500 rpm • 7. Again carefully withdraw 0.9 mL from each for HPLC Analysis.
Shaking the Aminoflavone in either water or 1% Aqueous PVA results in a dispersion of small particles that are difficult to see. They are suspended in the solution. HPLC duplication will be very poor since the “solution” is not uniform suspension of different size particles.

[5] = Solubility of aminoflavone in Freon-22 / ethanol (BPN-06, BPN-07, BPN-08); type: physicochemical; conditions: 40 °C, organic solvent or mixture, thermodynamic from solid
Experimental: Three supercritical, critical or near critical fluid solubility experiments were conducted on the aminoflavone prodrug (NSC 686288). The experiments were conducted with 100% (neat) Freon-22 at 3,000 psig (BPN-06), and 40° C., 90% Freon-22/10% ethanol at 3,000 psig and 40° C. (BPN-07) and 80% Freon-22/20% ethanol at 3,000 psig and 40° C. (BPN-08). These supercritical, critical or near critical fluid and conditions were selected on the basis of previous experience.
A 5.0 mL sample loop was utilized and each collection vial contained 5.0 ml of the same liquid as the sample loop rinse. Methanol was used as the collection fluid and sample rinse in BPN-06; ethanol was utilized as the collection fluid and sample rinse in BPN-07 and BPN-08. Samples were collected after circulation for 60, 75, 90, 105 and 120 minutes; the sample loop was then flushed of CO2 (except BPN-06). The fractions were then analyzed by HPLC. Each solubility data point is the average of 5 measurements.

[6] = HPLC analysis for degradation after supercritical fluid particle size reduction; type: physicochemical; conditions: nitrogen 3,000 psig, 60 minutes, rapid depressurization
Experimental: Three nanoparticles experiments were conducted—two with surrogate compounds and one with aminoflavone prodrug (Sample 5). In general, the poorly water-soluble anticancer compound was first saturated with water by placement in the vapor generated by a 39° C. temperature water bath for 60 minutes. The water-saturated sample was then frozen in a −80° C. freezer for 60 minutes. The frozen particles were then placed in the chamber of the nanoparticles apparatus (FIG. 2) and contacted with nitrogen at 3,000 psig for 60 minutes to ensure maximum saturation of the hydrophobic anticancer compound by the SFS. The materials were then rapidly depressurized, discharging the chamber contents into a collection container. The experiments were conducted following Standard Operating Procedure SOP #APH-S0603 and Drawing #9706-001 Rev 2 in Appendix C.
Three samples in aluminum weigh boats with contents weight of 0.4 to 0.5 mg was provided. To obtain the assay solution, each boat was placed in a sonicator bath filled to a height of 3 mm with water. Ten milliliters of methanol was pipetted into the boat and the sonicator was turned on for 20 seconds. The yellow residue in the boat dissolved completely in less than 5 seconds. After sonication, the sample was drawn back into the 10 mL pipette and transferred to a 20 mL scintillation vial to await HPLC assay. […]

[7] = HPLC analysis of 0.45 micron filter filtrate of BPN-20 in 1% PVA; type: physicochemical
Experimental: Procedure: • 1. Write A, B, C, and D on each of four 0.45 micron 47 mm Nylon 66 filters with a soft pencil. • 2. Weigh each of the filters. • 3. Draw Methanol through Filter A and set on a paper towel to dry. • 4. Weigh about 10 mg of aminoflavone onto Filter B and get an accurate weight. • 5. Draw 100 mL of Methanol through Filter B and bring to 100 mL in a 100 mL vol flask • 6. Set Filter B aside to dry on a paper towel. • 7. Draw 20 mL of 1% PVA through Filter C and set on a paper towel to dry. • Save the Filtrate for HPLC Assay • 8. Draw 20 mL of BPN-20 yellow ppt through Filter D and set on a paper towel to dry. • Save the Filtrate for HPLC Assay • 9. Place all four filters in the vacuum oven for 1 hour at 60 C. Then weigh the filters. • 10. Draw 100 mL of Methanol through Filters C and D. Bring to 100 mL with Methanol. • 11. Dry, vacuum oven, and get an accurate weight on filters C and D.

[8] = cited from earlier work
[9] = molar-equivalent basis; cited from earlier work

CC1=C(/C=C/C(C)=C/C=C/C(C)=C/C(=O)Nc2ccc(O)cc2)C(C)(C)CCC1 [Sample 2, Fenretinide (4HPR)]
S = mg/100 mL (preliminary solubility in methanol) [1]: >163 mg/100 mL | decomposition of old standard solution ([2]; methanol solution stored at room temperature on the laboratory bench): showed decomposition products

CCCCCCCCCCCCCCC[C@H](O)[C@@H](N)CO [Sample 3, Safingol]
S = mg/100 mL (preliminary solubility in methanol) [1]: >87 mg/100 mL

C=CCNC1=C2C[C@@H](C)C[C@H](OC)[C@H](O)[C@@H](C)/C=C(\C)[C@H](OC(N)=O)[C@@H](OC)/C=C\C=C(/C)C(=O)NC(=CC1=O)C2=O [Sample 4, 17-Allylamino Demethoxygeldanamycin (17-AAG)]
S = mg/100 mL (preliminary solubility in methanol) [1]: >220 mg/100 mL | Solubility (mg/100 mL) ([3]; Ethanol): 1478 mg/100 mL | Solubility (mg/100 mL) ([3]; Methanol): 4260 mg/100 mL | solubility at 5 min ([3]; Ethanol): 1480 µg/mL (≈ 2520 µM) | solubility at 5 min ([3]; Methanol): 4260 µg/mL (≈ 7270 µM) | decomposition of old standard solution ([2]; methanol solution exposed to room light and temperature for several weeks): only tiny decomposition peaks

Cc1c(F)c(N)c2c(=O)cc(-c3ccc(N)c(F)c3)oc2c1F [Sample 5, Aminoflavone]
S = mg/100 mL (preliminary solubility in methanol) [1]: 48 mg/100 mL | solubility ([1]; organic solvent or mixture, thermodynamic from solid, read-out: measured solubility in methanol): 480 µg/mL (≈ 1500 µM) | solubility at 5 min ([4]; 1% PVA in water, aqueous with cosolvent or surfactant or cyclodextrin, 1% PVA after centrifugation, average, read-out: average (actual) solubility): 0.22 µg/mL (≈ 0.687 µM) | solubility at 5 min ([4]; 1% PVA in water, aqueous with cosolvent or surfactant or cyclodextrin, 1% PVA after centrifugation, read-out: Solubility): 0.2 µg/mL (≈ 0.624 µM) | solubility at 5 min ([4]; 1% PVA in water, aqueous with cosolvent or surfactant or cyclodextrin, 1% PVA, after shaking, before centrifugation, read-out: Solubility): 14 µg/mL (≈ 43.7 µM) | solubility at 5 min ([4]; 1% PVA in water, aqueous with cosolvent or surfactant or cyclodextrin, 1% PVA, before centrifugation, average, read-out: average (apparent) solubility): 12.1 µg/mL (≈ 37.6 µM) | average (apparent) solubility ([4]; 1% PVA, before centrifugation, average): 12 µg/mL | average solubility ([4]; DI water after centrifugation, average): 0.31 µg/mL | solubility at 5 min ([4]; DI water, water, DI water after centrifugation, average, read-out: average solubility): 0.33 µg/mL (≈ 1.03 µM) | solubility at 5 min ([4]; DI water, water, DI water after centrifugation, read-out: Solubility): 0.34 µg/mL (≈ 1.06 µM) | solubility at 5 min ([4]; DI water, water, DI water, after shaking, before centrifugation, read-out: Solubility): 7.84 µg/mL (≈ 24.5 µM) | solubility at 5 min ([4]; DI water, water, DI water, before centrifugation, average, read-out: average solubility): 10.7 µg/mL (≈ 33.3 µM) | Solubility (mg/100 mL) ([3]; Ethanol): 240 mg/100 mL | Solubility (mg/100 mL) ([3]; Methanol): 280 mg/100 mL | solubility at 5 min ([3]; Ethanol): 240 µg/mL (≈ 749 µM) | solubility at 5 min ([3]; Methanol): 280 µg/mL (≈ 874 µM) | solubility ([5]; BPN-06: Freon-22 100 vol %, ethanol 0 vol %, 3,000 psig and 40° C.): 65 µg/mL (≈ 203 µM) | solubility ([5]; BPN-07: Freon-22 90 vol %, ethanol 10 vol %, 3,000 psig and 40° C.): 108 µg/mL (≈ 337 µM) | solubility ([5]; BPN-08: Freon-22 80 vol %, ethanol 20 vol %, 3,000 psig and 40° C.): 116 µg/mL (≈ 362 µM) | product degradation of treated materials versus untreated controls (HPLC) [6]: did not indicate any product degradation | solubility in 1% PVA [7]: essentially insoluble | solubility in DMSO ([8]; DMSO): readily soluble | solubility ([8]; pH 4 and pH 7): 0.126 to 0.188 µg/mL | aqueous solubility ([8]; pH 10 (glycine buffer)): 0.65 µg/mL (≈ 2.03 µM) | toxicity of intravenous treatments versus prodrug NSC 710464D [9]: less toxic
